Test results taken from ChEMBL document CHEMBL1142638, “Thalicosides A1-A3, minor cycloartane bisdesmosides from Thalictrum minus” (2000).

What was measured:
Staphylococcus aureus = assay: Antibacterial activity against Staphylococcus aureus ATCC 6538P at 1 mg/mL after 24 hrs by spectrophotometry; format: functional
Candida albicans = assay: Antifungal activity against Candida albicans ATCC 90028 at 1 mg/mL after 24 hrs by spectrophotometry; format: functional

## CC(C)=CC[C@H](O)[C@@H](C)[C@H]1[C@@H](O)C[C@@]2(C)[C@@H]3CC[C@H]4[C@](C)(CO[C@@H]5O[C@H](CO)[C@@H](O)[C@H](O)[C@H]5O)[C@@H](O[C@@H]5OC[C@H](O)[C@H](O)[C@H]5O)CC[C@@]45C[C@@]35CC[C@]12C [THALICOSIDE A2]
Staphylococcus aureus
  Activity: 45.7%
Candida albicans
  Activity: 78.7%
